Where two headings read alike, the source gives them in different places.

Data set [1] relates to U266 and RPMI cell lines. The data set is described as follows: MTT cell viability assay, statements for both MM cell lines. To be noted: for CB2 receptor dependence of cytotoxic effect: pre-treatment with 20 μM AM630 (CB2 antagonist), FIG. 2. The procedure:
(§1) U266 and RPM18226 (RPMI) MM cell lines were purchased from ATCC (LGC Standards, Milan, IT). Cell authentication was performed by IST (Genova, Italy). Cell lines were cultured in RPMI1640 medium (Lonza, Milan, IT) supplemented with 10% foetal bovine serum (FBS), 2 mM L-glutamine, 100 IU/ml penicillin, 100 μg/ml streptomycin and 1 mM sodium pyruvate. Cell lines were maintained at 37° C. with 5% CO2 and 95% humidity.
(§2) U266 and RPMI cell lines (4×10^4 cells/ml) were seeded in 96-well plates, in a final volume of 100 μl/well. After 1 day of incubation, compounds or vehicles were added. At least four replicates were used for each treatment.
At the indicated time point, cell viability was assessed by adding 0.8 mg/ml of 3-[4,5-dimethylthiazol-2-yl]-2,5 diphenyl tetrazolium bromide (MTT) (Sigma Aldrich) to the media. After 3 h, the plates were centrifuged, the supernatant was removed, and the pellet was solubilized with 100 μl/well DMSO.
(§3) The absorbance of the samples against a background control (medium alone) was measured at 570 nm using an ELISA reader microliter plate (BioTek Instruments, Winooski, Vt., USA). Synergistic activity of the THC-CBD combinations was determined by the isobologram and combination index (CI) methods (CompuSyn Software, ComboSyn, Inc. Paramus, N J 2007). The CI was used to express synergism (CI<1), additivity (CI=1) or antagonism (CI>1) and was calculated according to the standard isobologram equation (Chou, 2006).
On the technique in general: Formazan colour is commonly taken as a measure of viable cells.

Data set [2] has as its system CXCR4 and CD147 in U266 and RPMI cell lines. The data set is described as follows: CXCR4 and CD147 expression by qRT-PCR. In kind it is cell-based. To be noted: alone and in combination; qRT-PCR and FACS; MM cell lines. (In general: In qPCR the cycle at which signal appears reflects the starting amount.)
Data set [3] has as its system U266 and RPMI cell lines. The data set can be described thus: Cell migration assay (SDF-1, eCyPA chemotaxis). The settings on record: 24 h treatment; single and in combination; FIG. 8C. It counts as cell-based.
Data set [4] relates to γ-H2AX (H2AX) in U266 and RPMI cell lines. The data set can be described thus: Western blot of γ-H2AX. In kind it is cell-based. The settings on record: 24 h post-treatments; both cell lines; FIG. 5C. The protocol: (§4) U266 and RPMI cell lines were lysed in buffer containing protease inhibitor cocktail (Sigma Aldrich). Lysates were resolved by sodium dodecyl sulphate polyacrylamide gel (8-14%) and transferred onto Hybond-C extra membranes (GE Healthcare, Munich, Germany). Non-specific binding sites were blocked with 5% low-fat dry milk in phosphate-buffered saline 0.1% Tween 20 for 1 h.
(§5) Blots were incubated with the primary Abs: anti-iβ5 subunit (1:1000, Cell Signalling, Denver, Colo., USA), rabbit anti-LC3 (2 μg/ml, Novus Biologicals, Littleton, Colo., USA), rabbit anti-caspase-3 (1:1000, Cell Signalling), rabbit anti-p62 (1:1000, Cell Signalling), rabbit anti-H2AX (1:1000, Cell Signalling) and mouse anti-glyceraldehydes-3-phosphate dehydrogenase (GAPDH, 1:3000, OriGene, Rockville, Md., USA) Abs overnight and then incubated with their respective HRP-conjugated anti-mouse and anti-rabbit (1:2000, Cell Signalling) Abs for 1 h. The detection was performed using the LiteAblot PLUS or the LiteAblot TURBO (EuroClone, Milano, Italy) kits, and densitometric analysis was carried out by a Chemidoc using the Quantity One software (Bio-Rad, Hercules, Calif., USA).
The presence of γ-H2AX (H2AX), a phosphorylated variant of histone 2A that is associated with DNA double-strand breaks was investigated.

In data set [5] the test system is LC3-II/LC3-1 and p62 in U266 and RPMI cell lines. The data set can be described thus: Western blot of autophagy markers LC3 and p62. In kind it is cell-based. The settings on record: 12.5 μM; 24 h of treatment; FIG. 4A. The procedure:
as §4, §5
These experiments investigated if the increase in sub-G1 cell accumulation by THC-CBD combination treatment was due to an autophagic-cell death process. […]

The test system of data set [6] is β5i subunit in U266 and RPMI cell lines. The data set can be described thus: β5i precursor and mature form by western blot after IFN-γ. It counts as cell-based. To be noted: both cell lines, FIG. 6B. The protocol: as §4, §5
The potential role of the combination of THC-CBD in regulating the β5i subunit was investigated. U266 and RPMI cell lines were treated with CBD and THC, after 24 h exposure to IFN-γ (100 U/ml).

Data set [7] relates to U266 and RPMI cell lines. The data set is described as follows: Cell cycle analysis by PI staining and FACS, both MM cell lines. It counts as cell-based. The settings on record: 12.5 μM, vs control, FIG. 3.
The test system of data set [8] is RPMI cell line. The data set can be described thus: MTT cell viability assay, RPMI. The protocol: as §1, §2
(§6) At the indicated time point, cell viability was assessed by adding 0.8 mg/ml of 3-[4,5-dimethylthiazol-2-yl]-2,5 diphenyl tetrazolium bromide (MTT) (Sigma Aldrich) to the media. […]
as §3

In data set [9] the test system is U266 cell line. The data set can be described thus: MTT cell viability assay, U266. The settings on record: Homo sapiens. The protocol:
as §1, §2, §6, §3

Data set [10] concerns β5i subunit in U266 and RPMI cell lines. The data set can be described thus: β5i mRNA by qRT-PCR after IFN-γ. It counts as cell-based. To be noted: after 24 h IFN-γ (100 U/ml); 12.5 μM; respect to IFN-γ alone; FIG. 6A.
Data set [11] relates to RPMI cell line. To be noted: Morelli et al. 2014, read-out: IC50, reducing cell viability; cited from earlier work.
In the next data set the test system is U266. The settings on record: Morelli et al. 2014; cited from earlier work.
The test system of a further data set is RPMI. To be noted: Morelli et al. 2014; cited from earlier work.
In data set [12] the test system is U266 cell line. To be noted: Morelli et al. 2014, read-out: IC50, reducing cell viability; cited from earlier work.

As to `CC(C)C[C@H](NC(=O)[C@H](CCc1ccccc1)NC(=O)CN1CCOCC1)C(=O)N[C@@H](Cc1ccccc1)C(=O)N[C@@H](CC(C)C)C(=O)[C@@]1(C)CO1` [CFZ, carfilzomib], in the data set with U266 and RPMI cell lines [1] (presence or absence of IFN-γ, 72 h post-treatment, data not shown), the cell viability entry is listed as “reduced cell viability”. Besides, the “expression of CXCR4 and CD147 chemotactic receptors” value in data set [2] is recorded as “reduce the expression”. In the data set on U266 and RPMI cell lines [3], the “SDF-1-, eCyPA- and SDF-1/eCyPA-mediated chemotaxis compared with vehicle-treated cells” value is “reduced”.
As for `CCCCCc1cc(O)c2c(c1)OC(C)(C)[C@@H]1CCC(C)=C[C@@H]21` [THC, Tetrahydrocannabinol], in the data set on U266 and RPMI cell lines [1], the “CB2 receptor dependence of cytotoxic effect” value is given as “not CB2 receptors dependent”. Further, in [4], the “levels of the phosphorylated form of H2AX” value is “increase levels”. Also, in data set [5], the LC3-II/LC3-1 ratio result is given as “no effect”. The “expression of precursor and mature form of β5i (protein)” value in data set [6] is “low efficacy”. For the same compound, the “expression of CXCR4 and CD147 chemotactic receptors” value in [2] is listed as “reduce the expression”. In addition, the “accumulation in sub-G1 phase (hypodiploid DNA)” value with U266 and RPMI cell lines [7] (48 h post-treatment) was “accumulation in sub-G1 phase”. For the same compound, the “cell accumulation in G1 phase” value with U266 and RPMI cell lines [7] (starting from 24 h post-treatment) is “induce cell accumulation in G1 phase”. In addition, the IC50 (usually the point on the concentration scale where inhibition reaches its midpoint) with RPMI cell line [8] (72 h, read-out: IC50, cell viability) came to 30.8 µM; in the data set with U266 cell line [9] (U-266, 72 h, read-out: IC50, cell viability), 39.5 µM. For the same compound, the “SDF-1-, eCyPA- and SDF-1/eCyPA-mediated chemotaxis compared with vehicle-treated cells” value with U266 and RPMI cell lines [3] is reported as “reduced”. The “β5i expression level (mRNA) induced by IFN-γ” value in [10] is given as “low effects”.
Turning to `C=C(C)[C@@H]1CCC(C)=C[C@H]1c1c(O)cc(CCCCC)cc1O` [CBD, Cannabidiol], the “cytotoxic effects after pre-treatment with BAF1” value in the data set on U266 and RPMI cell lines [1] is reported as “reversed”. Moreover, the “CB2 receptor dependence of cytotoxic effect” value in the data set with U266 and RPMI cell lines [1] is reported as “not CB2 receptors dependent”. In data set [4], the “levels of the phosphorylated form of H2AX” value is on record as “increase levels”. Further, the LC3-II/LC3-1 ratio result in [5] is given as “slight increase”. The “expression of precursor and mature form of β5i (protein)” value in data set [6] is “low efficacy”. Moreover, the IC50 is 22.4 µM in the data set on RPMI cell line [11] and 19.8 µM in the data set with U266 cell line [12]. In addition, the “blocking cell cycle in GO/G1 phase” value in the data set on U266 is 38%; with RPMI it was 42%. Further, the “expression of CXCR4 and CD147 chemotactic receptors” value in data set [2] was “reduce the expression”. Further, the cytotoxicity at 12.5 µM was found to be 20% in the data set with RPMI cell line [8] (read-out: decrease in cell viability) and 20% with U266 cell line [9] (U-266, read-out: decrease in cell viability). For the same compound, the “SDF-1-, eCyPA- and SDF-1/eCyPA-mediated chemotaxis compared with vehicle-treated cells” value with U266 and RPMI cell lines [3] is recorded as “reduced”. For the same compound, the “β5i expression level (mRNA) induced by IFN-γ” value in data set [10] was “low effects”.

Source of the values: patent US11065227B2, “Use of cannabinoids in the treatment of multiple myeloma” (GW Research Limited, priority 2016, dated 2021).
